According to patent US11274100B2, “EP300/CREBBP inhibitor” (Daiichi Sankyo Company, Limited, priority 2017, dated 2022):

Experiments:
H3K27Ac = test: Intracellular H3K27Ac inhibitory activity in LK2 cells (Test Example 2); assay type: cell-based; details: Homo sapiens, LK-2, cultured with compound for 3 hours, read-out: Test Example 2 H3K27Ac Inhibition (LK2) IC50
In short: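 Human squamous lung cancer LK2 cells (40000/well) cultured overnight at 37 °C, 5% CO2 before treatment. After paraformaldehyde fixation, peroxide quench and blocking, H3K27 acetylation detected with anti-acetyl-H3K27 rabbit mAb (4 °C overnight) and HRP secondary; chemiluminescent read-out.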

CREBBP = CREBBP (Homo sapiens, UniProt Q92793); test: Histone acetyltransferase inhibitory activity against CREBBP (Test Example 1); assay type: biochemical; details: 125 ng/mL CREBBP, 2 μM Acetyl-CoA, 100 nM Histone H4(1-25)-GSGSK (Biotin), 28° C. for 1 hour
In short: (§1)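 Enzyme (50 ng/mL EP300 or 125 ng/mL CREBBP) incubated 1 h at 28° C with 2 μM acetyl-CoA, 100 nM biotinylated histone H4(1-25) peptide and 10 to 0.0006 μM compound in pH 8.0 Tris buffer with 330 nM trichostatin A, 1% DMSO. Reaction stopped with Lys-CoA; acetylation read by TR-FRET (Eu-anti pan-Ac/Sta-ULight) after overnight room-temperature incubation.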

EP300 = EP300 (Homo sapiens, UniProt Q09472); test: Histone acetyltransferase inhibitory activity against EP300 (Test Example 1); assay type: biochemical; details: 50 ng/mL EP300, 2 μM Acetyl-CoA, 100 nM Histone H4(1-25)-GSGSK (Biotin), 28° C. for 1 hour
In short: as §1

LK2 cells = test: Cell growth inhibitory activity, LK2 cells (Test Example 3); assay type: cell-based; details: Homo sapiens, LK-2, 72 h, cultured for 3 days, CellTiter-Glo
In short: (§2)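 LK2 and TE-8 […] cells in RPMI 1640 with 10% FBS exposed to 10-point 4-fold dilutions (10 mM to 38 nM, stock series) for 3 days. ATP luminescence (CellTiter-Glo 2.0) at day 0 and day 3 gave survival as (T3−C0)/(C3−C0)×100; GI50 from semilog plot.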

TE-8 cells = test: Cell growth inhibitory activity, TE-8 cells (Test Example 3); assay type: cell-based; details: Homo sapiens, 72 h, cultured for 3 days, CellTiter-Glo
In short: as §2

Chain of CREBBP (Q92793 whole entry): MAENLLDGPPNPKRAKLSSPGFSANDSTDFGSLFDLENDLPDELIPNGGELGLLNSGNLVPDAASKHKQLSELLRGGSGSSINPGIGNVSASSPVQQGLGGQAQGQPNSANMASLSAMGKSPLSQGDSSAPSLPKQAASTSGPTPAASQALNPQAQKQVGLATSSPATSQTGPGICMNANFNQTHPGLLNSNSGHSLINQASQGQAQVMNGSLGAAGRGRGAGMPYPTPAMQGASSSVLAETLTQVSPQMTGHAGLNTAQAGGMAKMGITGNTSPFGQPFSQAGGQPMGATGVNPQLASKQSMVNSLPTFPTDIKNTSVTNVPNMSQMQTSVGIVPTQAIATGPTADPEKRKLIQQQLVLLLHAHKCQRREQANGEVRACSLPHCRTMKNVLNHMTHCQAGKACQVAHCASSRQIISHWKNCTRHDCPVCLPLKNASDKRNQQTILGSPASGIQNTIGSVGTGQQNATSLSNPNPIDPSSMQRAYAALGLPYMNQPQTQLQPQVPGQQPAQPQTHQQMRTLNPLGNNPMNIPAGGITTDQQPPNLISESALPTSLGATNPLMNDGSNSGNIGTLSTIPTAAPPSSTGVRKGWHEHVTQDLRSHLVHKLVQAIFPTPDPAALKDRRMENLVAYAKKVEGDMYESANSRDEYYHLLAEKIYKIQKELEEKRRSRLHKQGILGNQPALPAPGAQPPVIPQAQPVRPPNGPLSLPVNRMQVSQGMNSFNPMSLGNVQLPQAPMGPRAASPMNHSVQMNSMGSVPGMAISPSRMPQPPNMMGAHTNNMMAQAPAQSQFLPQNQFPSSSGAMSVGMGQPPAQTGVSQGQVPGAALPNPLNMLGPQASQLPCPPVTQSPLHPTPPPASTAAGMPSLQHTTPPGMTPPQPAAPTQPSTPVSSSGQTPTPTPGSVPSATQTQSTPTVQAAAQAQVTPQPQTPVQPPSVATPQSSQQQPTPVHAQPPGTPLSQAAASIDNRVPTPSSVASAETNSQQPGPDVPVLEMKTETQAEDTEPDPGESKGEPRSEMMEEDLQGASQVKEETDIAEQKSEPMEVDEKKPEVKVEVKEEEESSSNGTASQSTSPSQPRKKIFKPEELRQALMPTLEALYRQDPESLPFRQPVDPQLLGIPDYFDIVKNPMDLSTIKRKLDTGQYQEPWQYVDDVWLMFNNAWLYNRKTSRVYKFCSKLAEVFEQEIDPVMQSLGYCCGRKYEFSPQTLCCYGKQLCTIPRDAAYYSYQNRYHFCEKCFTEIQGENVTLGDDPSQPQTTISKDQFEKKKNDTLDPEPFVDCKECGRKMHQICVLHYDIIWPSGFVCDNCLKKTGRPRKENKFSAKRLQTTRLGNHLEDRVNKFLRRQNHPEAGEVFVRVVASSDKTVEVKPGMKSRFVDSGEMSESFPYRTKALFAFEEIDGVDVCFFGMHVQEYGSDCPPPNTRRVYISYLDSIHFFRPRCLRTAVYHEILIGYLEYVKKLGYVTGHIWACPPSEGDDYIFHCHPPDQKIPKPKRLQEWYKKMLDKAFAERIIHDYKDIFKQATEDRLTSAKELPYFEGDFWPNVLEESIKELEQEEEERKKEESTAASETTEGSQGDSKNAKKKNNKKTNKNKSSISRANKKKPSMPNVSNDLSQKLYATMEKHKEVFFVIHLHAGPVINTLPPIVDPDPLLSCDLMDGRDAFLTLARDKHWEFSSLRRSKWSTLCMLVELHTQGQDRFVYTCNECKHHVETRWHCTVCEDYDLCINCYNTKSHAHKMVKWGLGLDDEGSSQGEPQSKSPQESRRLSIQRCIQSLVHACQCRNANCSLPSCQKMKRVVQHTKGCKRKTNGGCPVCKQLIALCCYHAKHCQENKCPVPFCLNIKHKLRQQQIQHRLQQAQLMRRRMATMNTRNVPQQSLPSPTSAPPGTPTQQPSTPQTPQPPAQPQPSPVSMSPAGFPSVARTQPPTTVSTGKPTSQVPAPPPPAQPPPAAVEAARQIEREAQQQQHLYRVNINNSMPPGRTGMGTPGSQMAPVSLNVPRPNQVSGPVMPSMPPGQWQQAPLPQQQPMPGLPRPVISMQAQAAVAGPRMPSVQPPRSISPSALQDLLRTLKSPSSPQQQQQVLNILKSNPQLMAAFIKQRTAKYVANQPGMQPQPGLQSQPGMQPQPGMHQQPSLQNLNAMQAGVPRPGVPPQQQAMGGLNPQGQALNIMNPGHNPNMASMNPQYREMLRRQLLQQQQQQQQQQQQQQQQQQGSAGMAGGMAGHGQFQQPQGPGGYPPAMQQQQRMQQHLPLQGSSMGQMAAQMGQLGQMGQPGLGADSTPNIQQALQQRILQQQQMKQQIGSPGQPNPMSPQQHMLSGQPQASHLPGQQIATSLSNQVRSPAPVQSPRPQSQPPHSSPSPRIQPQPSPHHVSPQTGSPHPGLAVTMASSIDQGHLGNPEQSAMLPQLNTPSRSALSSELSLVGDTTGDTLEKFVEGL
Chain of EP300 (Q09472 whole entry): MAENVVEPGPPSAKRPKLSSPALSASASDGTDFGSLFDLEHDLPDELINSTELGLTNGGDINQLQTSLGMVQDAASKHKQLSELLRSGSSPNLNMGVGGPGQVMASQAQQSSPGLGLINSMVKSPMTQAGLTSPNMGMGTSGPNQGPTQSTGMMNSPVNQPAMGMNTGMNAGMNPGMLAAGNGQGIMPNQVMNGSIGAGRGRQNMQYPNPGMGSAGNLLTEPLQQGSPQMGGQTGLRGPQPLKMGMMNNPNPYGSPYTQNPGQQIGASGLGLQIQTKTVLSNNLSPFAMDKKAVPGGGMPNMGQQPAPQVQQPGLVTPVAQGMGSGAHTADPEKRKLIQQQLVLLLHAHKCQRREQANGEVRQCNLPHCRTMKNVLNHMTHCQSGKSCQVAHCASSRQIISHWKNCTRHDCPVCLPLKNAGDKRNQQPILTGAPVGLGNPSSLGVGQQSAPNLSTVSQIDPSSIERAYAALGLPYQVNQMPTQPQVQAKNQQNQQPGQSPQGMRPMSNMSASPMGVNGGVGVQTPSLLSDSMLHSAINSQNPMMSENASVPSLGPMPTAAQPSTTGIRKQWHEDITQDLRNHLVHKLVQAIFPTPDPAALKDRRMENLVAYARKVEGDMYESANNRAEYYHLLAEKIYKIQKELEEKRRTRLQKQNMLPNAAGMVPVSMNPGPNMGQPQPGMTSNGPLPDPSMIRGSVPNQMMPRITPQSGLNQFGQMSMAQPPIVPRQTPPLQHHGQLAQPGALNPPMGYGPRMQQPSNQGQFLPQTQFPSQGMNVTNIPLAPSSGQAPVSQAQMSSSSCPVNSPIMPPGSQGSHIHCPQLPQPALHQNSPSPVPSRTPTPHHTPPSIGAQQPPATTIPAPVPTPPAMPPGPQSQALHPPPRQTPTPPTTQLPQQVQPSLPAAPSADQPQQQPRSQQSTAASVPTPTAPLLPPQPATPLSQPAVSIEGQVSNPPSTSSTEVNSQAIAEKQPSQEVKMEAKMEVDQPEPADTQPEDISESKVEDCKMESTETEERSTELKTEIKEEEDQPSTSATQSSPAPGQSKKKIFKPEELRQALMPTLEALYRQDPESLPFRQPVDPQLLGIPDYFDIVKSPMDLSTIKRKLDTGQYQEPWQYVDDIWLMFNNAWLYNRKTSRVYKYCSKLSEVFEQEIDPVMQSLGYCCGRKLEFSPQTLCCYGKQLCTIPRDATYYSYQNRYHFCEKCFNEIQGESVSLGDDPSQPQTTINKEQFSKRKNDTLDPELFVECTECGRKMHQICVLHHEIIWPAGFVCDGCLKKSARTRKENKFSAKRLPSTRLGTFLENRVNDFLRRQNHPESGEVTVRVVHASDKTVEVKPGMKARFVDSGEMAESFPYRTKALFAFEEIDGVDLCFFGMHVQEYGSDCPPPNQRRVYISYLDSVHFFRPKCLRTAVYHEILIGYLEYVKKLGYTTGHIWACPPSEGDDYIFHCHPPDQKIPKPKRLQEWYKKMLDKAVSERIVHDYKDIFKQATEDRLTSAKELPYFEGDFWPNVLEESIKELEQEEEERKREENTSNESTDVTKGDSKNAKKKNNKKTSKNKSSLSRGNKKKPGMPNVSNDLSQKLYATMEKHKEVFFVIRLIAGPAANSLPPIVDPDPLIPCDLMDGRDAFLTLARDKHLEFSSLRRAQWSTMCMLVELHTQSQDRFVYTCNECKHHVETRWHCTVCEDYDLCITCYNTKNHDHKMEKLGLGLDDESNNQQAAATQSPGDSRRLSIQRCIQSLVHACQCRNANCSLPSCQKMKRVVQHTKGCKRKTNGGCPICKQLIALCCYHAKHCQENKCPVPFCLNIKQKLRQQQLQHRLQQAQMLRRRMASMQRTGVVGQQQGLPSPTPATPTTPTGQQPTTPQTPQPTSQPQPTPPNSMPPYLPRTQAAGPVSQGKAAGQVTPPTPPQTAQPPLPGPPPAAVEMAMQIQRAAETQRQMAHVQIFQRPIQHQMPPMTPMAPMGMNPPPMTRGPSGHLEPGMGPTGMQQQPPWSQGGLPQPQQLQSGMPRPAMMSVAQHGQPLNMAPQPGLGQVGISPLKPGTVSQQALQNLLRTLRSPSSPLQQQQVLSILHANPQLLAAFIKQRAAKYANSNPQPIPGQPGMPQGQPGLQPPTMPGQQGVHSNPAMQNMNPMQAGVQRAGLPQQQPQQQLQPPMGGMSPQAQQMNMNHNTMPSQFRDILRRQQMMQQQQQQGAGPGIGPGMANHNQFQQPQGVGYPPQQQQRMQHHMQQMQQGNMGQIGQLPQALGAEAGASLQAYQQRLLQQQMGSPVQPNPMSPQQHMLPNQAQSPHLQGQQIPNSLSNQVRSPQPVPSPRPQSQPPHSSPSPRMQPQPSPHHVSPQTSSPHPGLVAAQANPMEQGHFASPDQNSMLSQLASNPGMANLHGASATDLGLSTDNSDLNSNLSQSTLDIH

Compound | IC50 (H3K27Ac) | IC50 (CREBBP) | IC50 (EP300) | GI50 (LK2 cells) | GI50 (TE-8 cells)
COc1ccc(C2(C(=O)N3C[C@H](F)C[C@@H]3C(=O)Nc3ccc4[nH]ccc4n3)CCC(F)(F)CC2)cc1 [Example 51] | 0.05 µM | 0.054 µM | 0.041 µM | 0.351 µM | 0.916 µM
COc1ccc(C2(C(=O)N3CCC[C@@H]3C(=O)Nc3cccc4[nH]ncc34)CCCCCC2)cc1 [Example 54] | 0.92 µM | 0.201 µM | 0.126 µM | 2.97 µM | 4.48 µM
COc1ccc(C2(C(=O)N3C[C@H](F)C[C@@H]3C(=O)Nc3ccc4cc[nH]c4n3)CCCCC2)cc1 [Example 52] | 0.028 µM | 0.051 µM | 0.021 µM | 0.254 µM | 0.439 µM
COc1ccc(C2(C(=O)N(CCO)CC(=O)Nc3ccc4[nH]ncc4n3)CCC(F)(F)CC2)cc1 [Example 72, 4,4-Difluoro-N-(2-hydroxyethyl)-1-(4-methoxyphenyl)-N-[2-oxo-2-(1H-pyrazolo[4,3-b]pyridin-5-ylamino)ethyl]cyclohexanecarboxamide] | 1.15 µM | 0.182 µM | 0.177 µM | > 10 µM | > 10 µM
COc1ccc(C2(C(=O)N3C[C@H](F)C[C@@H]3C(=O)Nc3cccc4[nH]ncc34)CCCCO2)cc1 (single isomer, unassigned) [Example 44] | 0.246 µM | 0.048 µM | 0.048 µM | 0.589 µM | 1.74 µM
COc1ccc(C2(C(=O)N3C[C@H](F)C[C@@H]3C(=O)Nc3ccc4[nH]ccc4n3)CCCCC2)cc1 [Example 50] | 0.027 µM | 0.027 µM | 0.02 µM | 0.166 µM | 0.288 µM
O=C(Nc1ccc2[nH]ncc2n1)[C@H]1C[C@@H](F)CN1C(=O)C1(c2ccc(OCF)cc2)CCC(F)(F)CC1 [Example 48] | 0.025 µM | 0.034 µM | 0.014 µM | 0.105 µM | 0.135 µM
COc1ncc(C2(C(=O)N3C[C@H](F)C[C@@H]3C(=O)Nc3ccc4[nH]ncc4n3)CCCC2)cn1 [Example 64] | 0.188 µM | 0.121 µM | 0.056 µM | 0.643 µM | 1.27 µM
COc1ccc(C2(C(=O)N(C)[C@H](C)C(=O)Nc3ccc4[nH]ncc4n3)CCCCC2)cc1 [Example 46] | 0.014 µM | 0.045 µM | 0.024 µM | 0.147 µM | 0.145 µM
O=C(Nc1ccc2[nH]ncc2n1)[C@H]1C[C@@H](F)CN1C(=O)C1(c2ccc(OCF)cc2)CCCC1 [Example 49] | 0.039 µM | 0.025 µM | 0.013 µM | 0.075 µM | 0.0681 µM

Second part, led by results:

IC50 (H3K27Ac) | IC50 (CREBBP) | IC50 (EP300) | Compound | GI50 (LK2 cells) | GI50 (TE-8 cells)
0.023 µM | 0.083 µM | 0.052 µM | CC(C)(O)c1ccc(C2(C(=O)N3C[C@H](F)C[C@@H]3C(=O)Nc3ccc4[nH]ncc4n3)CCCCC2)cc1 [Example 81a, (4R)-4-Fluoro-1-({1-[4-(2-hydroxypropan-2-yl)phenyl]cyclohexyl}carbonyl)-N-1H-pyrazolo[4,3-b]pyridin-5-yl-D-prolinamide] | 0.167 µM | 0.176 µM
0.012 µM | 0.092 µM | 0.043 µM | [2H]C([2H])([2H])N(C(=O)C1(c2ccc(OC)cc2)CCC(F)(F)CC1)[C@H](CO)C(=O)Nc1ccc2[nH]ncc2n1 [Example 76, 4,4-Difluoro-N-[(2R)-3-hydroxy-1-oxo-1-(1H-pyrazolo[4,3-b]pyridin-5-ylamino)propan-2-yl]-1-(4-methoxyphenyl)-N—(^2H3)methylcyclohexanecarboxamide] | 0.0689 µM | 0.127 µM
0.062 µM | 0.061 µM | 0.038 µM | O=C(Nc1ccc2[nH]ncc2n1)[C@H]1C[C@@H](F)CN1C(=O)C1(c2ccc(OC(F)F)c(F)c2)CCC(F)(F)CC1 [Example 89] | 0.279 µM | 0.491 µM
0.02 µM | 0.051 µM | 0.036 µM | O=C(Nc1ccc2[nH]ncc2n1)[C@H]1[C@H](O)[C@@H](F)CN1C(=O)C1(c2ccc(OC(F)F)cc2)CCC(F)(F)CC1 [Example 95] | 0.179 µM | 0.246 µM
0.015 µM | 0.053 µM | 0.041 µM | [2H]C([2H])([2H])N(C(=O)C1(c2ccc(OC)cc2)CCC(F)(F)CC1)[C@H](CO)C(=O)Nc1ccc2[nH]ccc2n1 [Example 77, 4,4-Difluoro-N-[(2R)-3-hydroxy-1-oxo-1-(1H-pyrrolo[3,2-b]pyridin-5-ylamino)propan-2-yl]-1-(4-methoxyphenyl)-N—(^2H3)methylcyclohexanecarboxamide] | 0.102 µM | 0.199 µM
0.039 µM | 0.043 µM | 0.024 µM | O=C(Nc1ccc2[nH]c(CO)cc2n1)[C@H]1C[C@@H](F)CN1C(=O)C1(c2ccc(OC(F)F)cc2)CCC(F)(F)CC1 [Example 106, (4R)-1-({1-[4-(Difluoromethoxy)phenyl]-4,4-difluorocyclohexyl}carbonyl)-4-fluoro-N-[2-(hydroxymethyl)-1H-pyrrolo[3,2-b]pyridin-5-yl]-D-prolinamide] | 0.25 µM | 0.337 µM
0.192 µM | 0.078 µM | 0.05 µM | COCc1cc2nc(NC(=O)[C@H]3C[C@@H](F)CN3C(=O)C3(c4ccc(OC(F)F)cc4)CCC(F)(F)CC3)ccc2[nH]1 [Example 105, (4R)-1-({1-[4-(Difluoromethoxy)phenyl]-4,4-difluorocyclohexyl}carbonyl)-4-fluoro-N-[2-(methoxymethyl)-1H-pyrrolo[3,2-b]pyridin-5-yl]-D-prolinamide] | 0.753 µM | 0.989 µM
0.009 µM | 0.007 µM | 0.004 µM | O=C(Nc1ccc2[nH]ncc2n1)[C@H]1C[C@@H](F)CN1C(=O)C1(c2ccc(OC(F)F)cc2)CC(F)(F)C1 [Example 90] | 0.0734 µM | 0.106 µM
0.218 µM | 0.123 µM | 0.07 µM | COc1ccc(C2(C(=O)N3C[C@H](F)C[C@@H]3C(=O)Nc3ccc4[nH]c(C)cc4n3)CCC(F)(F)CC2)cc1 [Example 97, (4R)-1-{[4,4-Difluoro-1-(4-methoxyphenyl)cyclohexyl]carbonyl}-4-fluoro-N-(2-methyl-1H-pyrrolo[3,2-b]pyridin-5-yl)-D-prolinamide] | 0.854 µM | 1.18 µM
